Results reported in ChEMBL document CHEMBL6083204, “Synthesis of a celastrol derivative as a cancer stem cell inhibitor through regulation of the STAT3 pathway for treatment of ovarian cancer” (RSC Med Chem, 2024).
Activity calls are given as the source filed them. No cut-off for these calls is given here.

Assays:
SK-OV-3 [1] = test: Antiproliferative activity against human SK-OV-3 cells assessed as decrease in CD44 positive CD24 negative cells expression at 0.2 uM incubated for 24 hrs by FITC staining based flow cytometry (reference value: 85.6 %); assay type: functional; set-up: scale not given: the % may be the effect or the level left
SK-OV-3 [2] = test: Induction of cell cycle arrest in human SK-OV-3 cells assessed as reduction of Cyclin D1 expression at 0.8 uM incubated for 24 hrs by flow cytometry (reference value: 93.8 %); assay type: functional; set-up: scale not given: the % may be the effect or the level left
SK-OV-3 [3] = test: Induction of apoptosis in human SK-OV-3 cells assessed as increase in caspase-8 activity at 0.4 uM incubated for 24 hrs by flow cytometry (reference value: 2.5 %); assay type: functional
[4] = target: Signal transducer and activator of transcription 3 (Homo sapiens) (UniProt P40763); test: Inhibition of STAT3 in human SK-OV-3 cells assessed as downregulation of STAT3 phosphorylation at Tyr705 residue incubated for 24 hrs by Western blotting analysis; assay type: cell-based
Signal transducer and activator of transcription 3 (Homo sapiens), sequence (P40763 whole entry): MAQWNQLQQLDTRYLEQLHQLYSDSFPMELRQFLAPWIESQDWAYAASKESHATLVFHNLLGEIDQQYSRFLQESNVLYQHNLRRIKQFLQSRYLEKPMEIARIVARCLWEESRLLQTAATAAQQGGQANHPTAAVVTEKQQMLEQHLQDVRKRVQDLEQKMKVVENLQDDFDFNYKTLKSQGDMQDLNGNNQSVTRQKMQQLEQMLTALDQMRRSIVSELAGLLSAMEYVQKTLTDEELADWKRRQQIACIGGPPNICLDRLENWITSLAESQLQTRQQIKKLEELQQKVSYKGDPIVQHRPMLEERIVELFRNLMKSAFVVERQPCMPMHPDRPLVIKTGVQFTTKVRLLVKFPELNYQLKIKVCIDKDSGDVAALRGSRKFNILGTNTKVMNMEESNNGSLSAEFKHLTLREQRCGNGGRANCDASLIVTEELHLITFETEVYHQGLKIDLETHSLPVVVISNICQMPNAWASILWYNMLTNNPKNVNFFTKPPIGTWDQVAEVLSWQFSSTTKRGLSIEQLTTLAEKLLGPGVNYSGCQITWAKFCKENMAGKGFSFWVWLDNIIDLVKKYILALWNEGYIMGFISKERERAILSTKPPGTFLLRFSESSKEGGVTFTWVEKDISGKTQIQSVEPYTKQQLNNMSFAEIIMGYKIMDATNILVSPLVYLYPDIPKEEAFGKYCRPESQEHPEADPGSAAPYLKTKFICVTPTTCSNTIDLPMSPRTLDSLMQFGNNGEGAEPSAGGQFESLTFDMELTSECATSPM

[5] = target: Signal transducer and activator of transcription 3 (Homo sapiens) (UniProt P40763); test: Inhibition of STAT3 in human A2780 cells assessed as downregulation of STAT3 phosphorylation at Ser727 residue in nuclei at 0.2 uM incubated for 24 hrs by Hoechst33342 staining based immunofluorescence assay; assay type: cell-based
A2780 [6] = test: Induction of cell cycle arrest in human A2780 cells assessed as reduction of CDK4 expression at 0.2 uM incubated for 24 hrs by flow cytometry (reference value: 93.6 %); assay type: functional; set-up: scale not given: the % may be the effect or the level left
SK-OV-3 [7] = test: Induction of apoptosis in human SK-OV-3 cells assessed as early apoptotic cells at 0.4 uM incubated for 24 hrs by Annexin V-FITC/7-AAD staining based flow cytometry (reference value: 1.6 %); assay type: functional
SK-OV-3 [8] = test: Inhibition of cell migration in human SK-OV-3 cells assessed as downregulation of phosphorylated FAK expression at 0.1 to 0.4 uM incubated for 24 hrs by Western blotting analysis; assay type: functional, cell-based; conditions: dose 0.1-0.4 µM
Mitochondrial membrane [9] = test: Induction of mitochondrial membrane potential loss in human SK-OV-3 cells at 0.2 uM incubated for 24 hrs by JC-1 staining based flow cytometry (reference value: 73.6 %)
SK-OV-3 [10] = test: Induction of cell cycle arrest in human SK-OV-3 cells assessed as reduction of Cyclin D1 expression at 0.2 uM incubated for 24 hrs by flow cytometry (reference value: 93.8 %); assay type: functional; set-up: scale not given: the % may be the effect or the level left
SK-OV-3 [11] = test: Induction of cell cycle arrest in human SK-OV-3 cells assessed as reduction of CDK2 expression at 0.8 uM incubated for 24 hrs by flow cytometry (reference value: 94.4 %); assay type: functional; set-up: scale not given: the % may be the effect or the level left
SK-OV-3 [12] = test: Induction of apoptosis in human SK-OV-3 cells assessed as early apoptotic cells at 0.8 uM incubated for 24 hrs by Annexin V-FITC/7-AAD staining based flow cytometry (reference value: 1.6 %); assay type: functional
[13] = target: Signal transducer and activator of transcription 3 (Homo sapiens) (UniProt P40763); test: Inhibition of STAT3 in human SK-OV-3 cells assessed as downregulation of STAT3 phosphorylation at Ser727 residue incubated for 24 hrs by Western blotting analysis; assay type: cell-based
A2780 [14] = test: Induction of apoptosis in human A2780 cells assessed as necrotic cells at 0.8 uM incubated for 24 hrs by Annexin V-FITC/7-AAD staining based flow cytometry (reference value: 1 %); assay type: functional
SK-OV-3 [15] = test: Antiproliferative activity against human SK-OV-3 cells assessed as decrease in CD44 positive CD24 negative cells expression at 0.4 uM incubated for 24 hrs by FITC staining based flow cytometry (reference value: 85.6 %); assay type: functional; set-up: scale not given: the % may be the effect or the level left
A2780 [16] = test: Inhibition of colony formation in human A2780 cells assessed as reduction in colony number incubated for 10 days by crystal violet staining based analysis; assay type: functional, cell-based; conditions: time 10.0 day
Mitochondrial membrane [17] = test: Induction of mitochondrial membrane potential loss in human SK-OV-3 cells at 0.4 uM incubated for 24 hrs by JC-1 staining based flow cytometry (reference value: 73.6 %)
A2780 [18] = test: Induction of cell cycle arrest in human A2780 cells assessed as reduction of Cyclin D1 expression at 0.2 uM incubated for 24 hrs by flow cytometry (reference value: 92.5 %); assay type: functional; set-up: scale not given: the % may be the effect or the level left
A2780 [19] = test: Inhibition of human A2780 cells spheroid formation assessed as reduction in spheroid number at 0.1 to 0.4 uM incubated for 10 days by inverted microscopic analysis; assay type: functional, cell-based; conditions: dose 0.1-0.4 µM, time 10.0 day
[20] = Cytotoxicity against human IOSE80 cells assessed as inhibition of cell growth incubated for 72 hrs by MTT assay; assay type: toxicity, cell-based
A2780 [21] = test: Antiproliferative activity against human A2780 cells assessed as decrease in ALDH positive cells at 0.4 uM incubated for 24 hrs by ALDEFLUOR staining based flow cytometry (reference value: 32.5 %); assay type: functional; set-up: scale not given: the % may be the effect or the level left
A2780 [22] = test: Induction of apoptosis in human A2780 cells assessed as early apoptotic cells at 0.4 uM incubated for 24 hrs by Annexin V-FITC/7-AAD staining based flow cytometry (reference value: 1.9 %); assay type: functional
[23] = Toxicity in BALB/c mouse xenografted with human SK-OV-3 cells assessed as pathological change in lung at 2 to 5 mg/kg,ip administrated for 21 consecutive days by hematoxylin and eosin staining based assay; assay type: organism-based; conditions: in vivo, dose 2-5 mg/kg
A2780 [24] = test: Induction of cell cycle arrest in human A2780 cells assessed as accumulation of cells at S phase at 0.2 uM incubated for 24 hrs by BrdU staining based flow cytometry (reference value: 51.6 %); assay type: functional
SK-OV-3 [25] = test: Induction of apoptosis in human SK-OV-3 cells assessed as late apoptotic cells at 0.4 uM incubated for 24 hrs by Annexin V-FITC/7-AAD staining based flow cytometry (reference value: 3.7 %); assay type: functional
[26] = Toxicity in BALB/c mouse xenografted with human SK-OV-3 cells assessed as pathological change in spleen at 2 to 5 mg/kg,ip administrated for 21 consecutive days by hematoxylin and eosin staining based assay; assay type: organism-based; conditions: in vivo, dose 2-5 mg/kg
A2780 [27] = test: Induction of apoptosis in human A2780 cells assessed as increase in caspase-3 activity at 0.2 uM incubated for 24 hrs by flow cytometry (reference value: 1.5 %); assay type: functional
[28] = target: Signal transducer and activator of transcription 3 (Homo sapiens) (UniProt P40763); test: Inhibition of STAT3 in human SK-OV-3 cells assessed as downregulation of survivin expression at 0.1 to 0.4 uM incubated for 24 hrs by Western blotting analysis; assay type: cell-based; conditions: dose 0.1-0.4 µM
SK-OV-3 [29] = test: Induction of apoptosis in human SK-OV-3 cells assessed as early apoptotic cells at 0.2 uM incubated for 24 hrs by Annexin V-FITC/7-AAD staining based flow cytometry (reference value: 1.6 %); assay type: functional
SK-OV-3 [30] = test: Inhibition of cell invasion in human SK-OV-3 cells incubated for 24 hrs by crystal violet staining based transwell assay; assay type: functional
A2780 [31] = test: Inhibition of human A2780 cells spheroid formation assessed as reduction in spheroid size at 0.1 to 0.4 uM incubated for 10 days by inverted microscopic analysis; assay type: functional, cell-based; conditions: dose 0.1-0.4 µM, time 10.0 day
A2780 [32] = test: Induction of apoptosis in human A2780 cells assessed as viable cells at 0.8 uM incubated for 24 hrs by Annexin V-FITC/7-AAD staining based flow cytometry (reference value: 95 %); assay type: functional; conditions: read-out: Activity
SK-OV-3 [33] = test: Inhibition of human SK-OV-3 cells spheroid formation assessed as reduction in spheroid size at 0.1 to 0.4 uM incubated for 10 days by inverted microscopic analysis; assay type: functional, cell-based; conditions: dose 0.1-0.4 µM, time 10.0 day

inhibition [4]: Dose-dependent-effect
inhibition [5]: Active
Activity (Mitochondrial membrane [9]): 49.6%
inhibition [13]: Dose-dependent-effect
Activity (Mitochondrial membrane [17]): 17.2%
Structure (SMILES): CC1=C(O)C(=O)C=C2C1=CC=C1[C@@]2(C)CC[C@@]2(C)[C@@H]3C[C@](C)(C(=O)N4CCNCC4)CC[C@]3(C)CC[C@]12C
Activity (SK-OV-3 [1]): 64.53%
Activity (SK-OV-3 [2]): 53.1%
Activity (SK-OV-3 [3]): 36.7%
Activity (A2780 [6]): 74.6%
Activity (SK-OV-3 [7]): 23.3%
inhibition (SK-OV-3 [8]): Active
Activity (SK-OV-3 [10]): 90.3%
Activity (SK-OV-3 [11]): 57.5%
Activity (SK-OV-3 [12]): 33.2%
Activity (A2780 [14]): 7.1%
Activity (SK-OV-3 [15]): 51.67%
inhibition (A2780 [16]): Dose-dependent-effect
Activity (A2780 [18]): 85.2%
inhibition (A2780 [19]): Active
IC50 at 72 h [20]: 1010 nM
Activity (A2780 [21]): 0.37%
Activity (A2780 [22]): 7.4%
Activity [23]: Non-toxic
Activity (A2780 [24]): 41.7%
Activity (SK-OV-3 [25]): 11.5%
Activity [26]: Non-toxic
Activity (A2780 [27]): 3.7%
inhibition [28]: Active
Activity (SK-OV-3 [29]): 17.3%
inhibition (SK-OV-3 [30]): Dose-dependent-effect
inhibition (A2780 [31]): Active
viability at 0.8 µM (A2780 [32]): 24.5%
inhibition (SK-OV-3 [33]): Active
